For 1 compound, EC50 results are on record in paper PMC3444433, “The Drosophila nicotinic acetylcholine receptor subunits Dα5 and Dα7 form functional homomeric and heteromeric ion channels” (BMC Neuroscience, 2012).

What all share (assay): two-electrode voltage clamp, Xenopus oocytes
Assay type in all cases: cell-based
Holding throughout (conditions): read-out: EC 50(μM or nM)*

One assay concerns the target T1, homomeric Dα7 nAChR (Drosophila melanogaster, UniProt Q9VWI9).
T1 construct: gene nAChRalpha7; intact subunit; pGEMHE cRNA in Xenopus oocytes with chaperone C. elegans RIC-3; homopentamer
T1 sequence (Q9VWI9 59-560): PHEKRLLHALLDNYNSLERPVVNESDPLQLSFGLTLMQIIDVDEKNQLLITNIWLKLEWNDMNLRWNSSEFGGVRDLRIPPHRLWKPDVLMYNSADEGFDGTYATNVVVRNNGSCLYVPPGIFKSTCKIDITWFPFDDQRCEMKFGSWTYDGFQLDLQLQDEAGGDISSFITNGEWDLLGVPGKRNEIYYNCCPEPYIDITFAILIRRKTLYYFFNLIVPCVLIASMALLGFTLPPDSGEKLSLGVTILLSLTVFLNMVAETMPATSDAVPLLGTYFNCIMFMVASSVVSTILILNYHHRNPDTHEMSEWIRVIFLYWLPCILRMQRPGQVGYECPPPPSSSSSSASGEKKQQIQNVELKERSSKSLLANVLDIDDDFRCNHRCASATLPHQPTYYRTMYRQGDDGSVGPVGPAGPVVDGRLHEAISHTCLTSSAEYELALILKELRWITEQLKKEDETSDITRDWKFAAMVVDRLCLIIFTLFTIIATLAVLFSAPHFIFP
An excerpt: two-electrode voltage clamp, Xenopus oocytes on homomeric Dα7 nAChR

For another assay, the target named is T2, Dα5 + Dα6 nAChR (Drosophila melanogaster, UniProt Q8T7V5+Q9VL79).
T2 construct: gene nAChRalpha5; intact subunits co-injected as cRNA in Xenopus oocytes with C. elegans RIC-3; pairwise heteromer not proven (may be homomeric Dα5); stoichiometry unknown
T2 sequence (Q8T7V5 1-807): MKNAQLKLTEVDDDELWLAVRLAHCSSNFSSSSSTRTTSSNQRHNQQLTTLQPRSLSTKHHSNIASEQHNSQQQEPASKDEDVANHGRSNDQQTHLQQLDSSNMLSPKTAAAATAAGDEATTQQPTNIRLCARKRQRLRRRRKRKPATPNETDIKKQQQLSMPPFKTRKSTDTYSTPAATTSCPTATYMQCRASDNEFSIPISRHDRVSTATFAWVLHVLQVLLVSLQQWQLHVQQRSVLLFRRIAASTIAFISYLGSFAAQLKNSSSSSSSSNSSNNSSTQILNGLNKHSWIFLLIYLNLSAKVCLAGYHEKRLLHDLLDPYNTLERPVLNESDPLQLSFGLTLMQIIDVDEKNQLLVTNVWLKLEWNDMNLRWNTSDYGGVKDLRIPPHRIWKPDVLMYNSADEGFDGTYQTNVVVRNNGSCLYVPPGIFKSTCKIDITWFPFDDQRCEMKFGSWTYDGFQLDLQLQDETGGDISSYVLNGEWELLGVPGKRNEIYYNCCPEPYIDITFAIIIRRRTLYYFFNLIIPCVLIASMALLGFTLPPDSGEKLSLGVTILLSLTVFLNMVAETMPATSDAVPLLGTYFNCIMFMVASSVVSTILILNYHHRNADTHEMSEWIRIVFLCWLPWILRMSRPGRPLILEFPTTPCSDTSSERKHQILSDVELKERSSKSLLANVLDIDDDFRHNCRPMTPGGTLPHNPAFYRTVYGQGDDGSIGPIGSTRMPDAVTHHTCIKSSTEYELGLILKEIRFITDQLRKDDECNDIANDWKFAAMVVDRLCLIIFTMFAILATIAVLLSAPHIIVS
T2 sequence (Q9VL79 28-494): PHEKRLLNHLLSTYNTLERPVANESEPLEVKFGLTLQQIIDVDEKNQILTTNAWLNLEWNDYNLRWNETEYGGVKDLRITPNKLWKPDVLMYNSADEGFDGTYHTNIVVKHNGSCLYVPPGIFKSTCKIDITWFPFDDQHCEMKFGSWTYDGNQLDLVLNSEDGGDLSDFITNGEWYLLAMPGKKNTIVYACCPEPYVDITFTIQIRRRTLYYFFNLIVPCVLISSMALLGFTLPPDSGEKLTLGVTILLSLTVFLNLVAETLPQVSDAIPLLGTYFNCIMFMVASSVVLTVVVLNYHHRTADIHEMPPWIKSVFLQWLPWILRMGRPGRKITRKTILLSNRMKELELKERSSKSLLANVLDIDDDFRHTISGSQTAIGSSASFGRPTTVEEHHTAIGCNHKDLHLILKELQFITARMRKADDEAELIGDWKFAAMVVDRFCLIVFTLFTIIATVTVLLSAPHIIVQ
An excerpt: two-electrode voltage clamp, Xenopus oocytes on Dα5 + Dα6 nAChR

In the next assay the target is T3, Dα5 + Dα7 nAChR (Drosophila melanogaster, UniProt Q8T7V5+Q9VWI9).
T3 construct: gene nAChRalpha5; intact subunits co-injected as cRNA in Xenopus oocytes with C. elegans RIC-3; pairwise heteromer not proven (may be homomers); stoichiometry unknown
T3 sequence (Q8T7V5 1-807): T2 sequence (Q8T7V5 1-807)
T3 sequence (Q9VWI9 59-560): T1 sequence (Q9VWI9 59-560)
The source says:
two-electrode voltage clamp, Xenopus oocytes on Dα5 + Dα7 nAChR

The target in another assay is T4, homomeric Dα5 nAChR (Drosophila melanogaster, UniProt Q8T7V5).
T4 construct: gene nAChRalpha5; full-length, 807 residues, unusually large N-terminal domain; pGEMHE cRNA in Xenopus oocytes with chaperone C. elegans RIC-3; homopentamer
T4 sequence (Q8T7V5 1-807): T2 sequence (Q8T7V5 1-807)
The source says: two-electrode voltage clamp, Xenopus oocytes on homomeric Dα5 nAChR

With `CC(=O)OCC[N+](C)(C)C` [acetylcholine], the EC50 is 6.7 ± 1.7 µM on homomeric Dα7 nAChR, 8.6 ± 2.4 µM at Dα5 + Dα6 nAChR, 1.6 ± 0.3 µM on Dα5 + Dα7 nAChR and 8.8 ± 2.5 µM on homomeric Dα5 nAChR.
